Tests used:
Test in all cases: area over the GR curve, 72 h; higher = more effect;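 also: Dye Drop or Deep Dye Drop imaging of viable cells in 384-well plates (Hoechst nuclei, LIVE/DEAD dye), nine half-log doses, GR normalized to DMSO controls and time-zero plates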
SUM190PT = system: SUM190PT
HCC38 = system: HCC38
HS578T = system: HS578T
BT549 = system: BT549
CAMA1 = system: CAMA1
HCC70 = system: HCC70
HCC1419 = system: HCC1419
SUM52PE = system: SUM52PE
MDAMB415 = system: MDAMB415
MCF7 = system: MCF7
SKBR3 = system: SKBR3
MDAMB330 = system: MDAMB330

With `CN1CCN(C(=O)c2ccc3cc(CCNc4ncnc5ccc(C#N)cc45)ccc3c2)CC1` [senexin b] (max 10 µM) the “area over the GR curve” value (SUM190PT) was 0.435 GR, the “area over the GR curve” value (HCC38) was 0.152 GR and the “area over the GR curve” value (HS578T) was 0.139 GR. For the same molecule, the “area over the GR curve” value (BT549) was 0.181 GR, the “area over the GR curve” value (CAMA1) was 0.351 GR and the “area over the GR curve” value (HCC70) was 0.209 GR. For the same molecule, the “area over the GR curve” value (HCC1419) was 0.13 GR, the “area over the GR curve” value (SUM52PE) was 0.141 GR and the “area over the GR curve” value (MDAMB415) was 0.173 GR. For the same molecule, the “area over the GR curve” value (MCF7) was 0.249 GR, the “area over the GR curve” value (SKBR3) was 0.172 GR and the “area over the GR curve” value (MDAMB330) was 0.146 GR.

— the supplement of paper PMC9663587
